Test results: ChEMBL document CHEMBL1201862, “PubChem BioAssay data set” (2004)
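Interpolation was linear, between the two tested concentrations surrounding the appropriate level; five concentrations were tested over 48 hours in 96-well plates. GI50 is the concentration that inhibits growth by half.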 Calls of active or inactive are those of the source. Rule as the data show it: active = GI50 up to about 1.1 µM and inactive = higher.

Key:
Experiment in all cases: inhibition of tumour cell growth, NCI panel, 48 h
UO-31 = test system: UO-31
MCF7 = test system: MCF7
T47D = test system: T47D
SK-OV-3 = test system: SK-OV-3
SR = test system: SR
786-0 = test system: 786-0
HL-60 = test system: HL-60
RXF 393 = test system: RXF 393
U-251 = test system: U-251
HOP-92 = test system: HOP-92
HT-29 = test system: HT-29
HCC 2998 = test system: HCC 2998
PC-3 = test system: PC-3
K562 = test system: K562
SK-MEL-5 = test system: SK-MEL-5
TK-10 = test system: TK-10
OVCAR-5 = test system: OVCAR-5
Hs-578T = test system: Hs-578T
OVCAR-3 = test system: OVCAR-3
M14 = test system: M14

Measured: GI50

N=C(N)/N=C(\N)Nc1ccc(C(=O)O)cc1
inactive: UO-31 > 100 µM | MCF7 > 100 µM | T47D > 100 µM | SK-OV-3 > 100 µM | SR > 100 µM | 786-0 > 100 µM | HL-60 > 100 µM | RXF 393 > 100 µM | U-251 > 100 µM | HOP-92 > 100 µM | HT-29 > 100 µM | HCC 2998 > 100 µM | PC-3 > 100 µM | K562 > 100 µM | SK-MEL-5 > 100 µM | TK-10 > 100 µM | OVCAR-5 > 100 µM | Hs-578T > 100 µM | OVCAR-3 > 100 µM | M14 > 100 µM

O=C(Cc1nc2ncccc2[nH]c1=O)c1c[nH]c2ccccc12
inactive: UO-31 17.7 µM | MCF7 16.9 µM | T47D 17.6 µM | SK-OV-3 16.3 µM | SR 30 µM | 786-0 18.2 µM | HL-60 32.1 µM | RXF 393 22 µM | U-251 17.7 µM | HOP-92 17.7 µM | HT-29 23 µM | HCC 2998 19.8 µM | PC-3 16 µM | K562 21.4 µM | SK-MEL-5 23.1 µM | TK-10 16.7 µM | OVCAR-5 24.2 µM | Hs-578T 18.6 µM | OVCAR-3 18 µM | M14 21 µM
